From patent US20060142247A1, “Tricyclic heterocycles” (priority 2004, published 2006)

System: HCT 116 cells
Assay: Viability assay HCT 116 cells (CellTiter-Glo)
Assay type: cell-based
Conditions: Homo sapiens, HCT-116, 120 h, HCT 116 human colon carcinoma cells, 5 days incubation, CellTiter-Glo luminescence
Protocol: Viability Assay—HCT 116 Cells
A viability assay was performed using the CellTiter-Glo® Luminescent Cell Viability Assay (see Promega Corporation's Technical Bulletin No. 288, pp. 1-11 [revised 2/04] which is hereby incorporated by reference in its entirety). This assay is a homogeneous method of determining the number of viable cells in culture based on quantitation of the ATP present, an indicator of metabolically active cells. The assay is designed for use with multiwell formats, making it ideal for automated high-throughput screening (HTS), cell proliferation and cytotoxicity assays. The homogeneous assay procedure involves adding a single reagent (containing luciferase, luciferan substrate, and buffer) directly to cells cultured in serum-supplemented medium. Cell washing, removal of medium and multiple pipetting steps are not required. The system detects as few as 15 cells/well in a 384-well format in 10 minutes after adding reagent and mixing.
The homogeneous “add-mix-measure” format results in cell lysis and generation of a luminescent signal proportional to the amount of ATP present. The amount of ATP is directly proportional to the number of cells present in culture. The above-referenced assay generates a “glow-type” luminescent signal, produced by the luciferase reaction, which has a half-life generally greater than five hours, depending on cell type and medium used. The extended half-life eliminates the need to use reagent injectors and provides flexibility for continuous or batch mode processing of multiple plates. The unique homogeneous format avoids errors that may be introduced by other ATP measurement methods that require multiple steps.
HCT 116 cells (human colon carcinoma, ATCC-No. CCl-247) were cultivated in RPMI 1640 medium with GlutaMAX™ I (cell culture media that contains L-Alanyl-L-Glutamine [a stabilized a form/source of L-Glutamine] from Invitrogen, Cat-No. 61870-010), 2.5% Fetal Calf Serum (FCS, Sigma Cat-No. F4135 (FBS)); 100 Units/ml penicillin/100 μg/ml streptomycin (=Pen/Strep from Invitrogen Cat. No. 15140). For the assay the cells were seeded in 384 well plates, 1000 cells per well, in the same medium. The next day the test compounds were added in various concentrations ranging from 30 μM to 0.0015 μM (10 concentrations, 1:3 diluted). After 5 days the viability assay was done according to the instructions of the manufacturer. In brief: the cell-plate was equilibrated to room temperature for approximately 30 minutes and than the reagent (containing luciferase, luciferan substrate, and buffer) was added. The contents were carefully mixed for 15 minutes to induce cell lysis. After 45 minutes the luminescent signal was measured in Victor 2, (scanning multiwell spectrophotometer, Wallac).
Medium: RPMI 1640 with cell culture media containing L-Alanyl-L-Glutamine [GlutaMAX™ I (Invitrogen, Cat-Nr. 61870)], 5% FCS (Sigma Cat.-No. F4135), Pen/Strep (Invitrogen, Cat No. 15140). • HCT116 (ATCC-No. CCl-247): 1000 cells in 60 μl per well of 384 well plate (Greiner 781098, μClear-plate white) • After seeding incubate plates 24 h at 37° C., 5% CO2 2nd. Day: Induction (Treatment with Compounds, 10 Concentrations):
In order to achieve a final concentration of 30 μM as highest concentration […] of 10 mM compound stock solution were added directly to 163 μl media. Then step e) of the dilution procedure described below, was followed.

| IC50 | SMILES |
| --- | --- |
| 0.1 to 1 µM | CCN1C(=O)C(C)(C)c2cc3[nH]c(-c4n[nH]c5ccc(NS(=O)(=O)c6ccccc6S(C)(=O)=O)cc45)nc3cc21 [Example 140, N-[3-(5-Ethyl-7,7-dimethyl-6-oxo-1,5,6,7-tetrahydro-imidazo[4,5-f]indol-2-yl)-1H-indazol-5-yl]-2-methanesulfonyl-benzenesulfonamide] |
| 0.1 to 1 µM | CCN1C(=O)C(C)(C)c2cc3nc(-c4n[nH]c5ccc(C(=O)NCc6ccccc6)cc45)[nH]c3cc21 [Example 79, 3-(5-Ethyl-7,7-dimethyl-6-oxo-3,5,6,7-tetrahydro-imidazo[4,5-f]indol-2-yl)-1H-indazole-5-carboxylic acid benzylamide] |
| 0.1 to 1 µM | CC1(C)C(=O)N(CCNC(=O)N2CCCC2)c2cc3[nH]c(-c4n[nH]c5ccccc45)nc3cc21 [Example 58, Pyrrolidine-1-carboxylic acid {2-[2-(1H-indazol-3-yl)-7,7-dimethyl-6-oxo-6,7-dihydro-3H-imidazo[4,5-f]indol-5-yl]-ethyl}-amide] |
| 0.1 to 1 µM | CCN1C(=O)C(C)(C)c2cc3nc(-c4n[nH]c5ccc(C(=O)NCc6cccnc6)cc45)[nH]c3cc21 [Example 81, 3-(5-Ethyl-7,7-dimethyl-6-oxo-3,5,6,7-tetrahydro-imidazo[4,5-f]indol-2-yl)-1H-indazole-5-carboxylic acid (pyridin-3-ylmethyl)-amide; compound with acetic acid] |
| 0.1 to 1 µM | CCN1C(=O)C(C)(C)c2cc3[nH]c(-c4n[nH]c5ccc(NS(=O)(=O)c6cccc(Cl)c6)cc45)nc3cc21 [Example 138, 3-Chloro-N-[3-(5-ethyl-7,7-dimethyl-6-oxo-1,5,6,7-tetrahydro-imidazo[4,5-f]indol-2-yl)-1H-indazol-5-yl]-benzenesulfonamide] |
| 0.1 to 1 µM | CCN1C(=O)C(C)(C)c2cc3nc(-c4n[nH]c5ccc(C(=O)O)cc45)[nH]c3cc21 [Example 69, 3-(5-Ethyl-7,7-dimethyl-6-oxo-3,5,6,7-tetrahydro-imidazo[4,5-f]indol-2-yl)-1H-indazole-5-carboxylic acid] |
| 0.1 to 1 µM | CN1C(=O)C(C)(C)c2cc3nc(-c4n[nH]c5ccccc45)[nH]c3cc21 [Example 4, 2-(1H-indazol-3-yl)-5,7,7-trimethyl-5,7-dihydro-3H-imidazo[4,5-f]indol-6-one] |
| 0.1 to 1 µM | CCN1C(=O)C(C)(C)c2cc3nc(-c4n[nH]c5ccc(C(=O)N6CCSC6)cc45)[nH]c3cc21 [Example 96, 5-Ethyl-7,7-dimethyl-2-[5-(thiazolidine-3-carbonyl)-1H-indazol-3-yl]-5,7-dihydro-3H-imidazo[4,5-f]indol-6-one] |
| 0.1 to 1 µM | CCN1C(=O)C(C)(C)c2cc3[nH]c(-c4n[nH]c5ccc(NS(=O)(=O)c6ccccc6[N+](=O)[O-])cc45)nc3cc21 [Example 134, N-[3-(5-Ethyl-7,7-dimethyl-6-oxo-1,5,6,7-tetrahydro-imidazo[4,5-f]indol-2-yl)-1H-indazol-5-yl]-2-nitro-benzenesulfonamide] |
| 1 to 10 µM | CC1(C)C(=O)Nc2cc3[nH]c(-c4n[nH]c5cc(C(=O)NCc6ccccc6)ccc45)nc3cc21 [Example 104, 3-(7,7-Dimethyl-6-oxo-3,5,6,7-tetrahydro-imidazo[4,5-f]indol-2-yl)-1H-indazole-6-carboxylic acid benzylamide] |
| 0.1 to 1 µM | CCN1C(=O)C(C)(C)c2cc3nc(-c4n[nH]c5ccc(NS(=O)(=O)c6cc(F)ccc6F)cc45)[nH]c3cc21 [Example 141, N-[3-(5-Ethyl-7,7-dimethyl-6-oxo-3,5,6,7-tetrahydro-imidazo[4,5-f]indol-2-yl)-1H-indazol-5-yl]-2,5-difluoro-benzenesulfonamide] |
| 1 to 10 µM | CCN1C(=O)C(C)(C)c2cc3nc(-c4n[nH]c5ccc(C(=O)NCc6ccncc6)cc45)[nH]c3cc21 [Example 82, 3-(5-Ethyl-7,7-dimethyl-6-oxo-3,5,6,7-tetrahydro-imidazo[4,5-f]indol-2-yl)-1H-indazole-5-carboxylic acid (pyridin-4-ylmethyl)-amide; compound with acetic acid] |
| 1 to 10 µM | CCN1C(=O)C(C)(C)c2cc3[nH]c(-c4n[nH]c5ccc(NC(=O)N6CCOCC6)cc45)nc3cc21 [Example 128, Morpholine-4-carboxylic acid [3-(5-ethyl-7,7-dimethyl-6-oxo-1,5,6,7-tetrahydro-imidazo[4,5-f]indol-2-yl)-1H-indazol-5-yl]-amide] |
| 0.1 to 1 µM | CC1(C)C(=O)N(CCNC(=O)c2cccnc2)c2cc3[nH]c(-c4n[nH]c5ccccc45)nc3cc21 [Example 55, N-{2-[2-(1H-Indazol-3-yl)-7,7-dimethyl-6-oxo-6,7-dihydro-3H-imidazo[4,5-f]indol-5-yl]-ethyl}-nicotinamide] |
| 0.1 to 1 µM | CONC(=O)CN1C(=O)C(C)(C)c2cc3nc(-c4n[nH]c5ccccc45)[nH]c3cc21 [Example 51, 2-[2-(1H-Indazol-3-yl)-7,7-dimethyl-6-oxo-6,7-dihydro-3H-imidazo[4,5-f]indol-5-yl]-N-methoxy-acetamide] |
| 0.1 to 1 µM | CCN1C(=O)C(C)(C)c2cc3nc(-c4n[nH]c5ccc(C(C)=O)cc45)[nH]c3cc21 [Example 103, 2-(5-Acetyl-1H-indazol-3-yl)-5-ethyl-7,7-dimethyl-5,7-dihydro-3H-imidazo[4,5-f]indol-6-one] |
| 0.1 to 1 µM | CCN1C(=O)C(C)(C)c2cc3nc(-c4n[nH]c5ccc(F)cc45)[nH]c3cc21 [Example 66, 5-Ethyl-2-(5-fluoro-1H-indazol-3-yl)-7,7-dimethyl-5,7-dihydro-3H-imidazo[4,5-f]indol-6-one] |
| 0.1 to 1 µM | CCN1C(=O)C(C)(C)c2cc3[nH]c(-c4n[nH]c5ccc(NC(=O)Cc6ccccc6C)cc45)nc3cc21 [Example 113, N-[3-(5-Ethyl-7,7-dimethyl-6-oxo-1,5,6,7-tetrahydro-imidazo[4,5-f]indol-2-yl)-1H-indazol-5-yl]-2-o-tolyl-acetamide] |
| 0.1 to 1 µM | CCN1C(=O)C(C)(C)c2cc3[nH]c(-c4n[nH]c5ccc(NC(=O)OCc6ccccc6)cc45)nc3cc21 [Example 130, [3-(5-Ethyl-7,7-dimethyl-6-oxo-1,5,6,7-tetrahydro-imidazo[4,5-f]indol-2-yl)-1H-indazol-5-yl]-carbamic acid benzyl ester] |
| 0.64 µM | CCN1C(=O)CC(C)(C)c2cc3nc(-c4n[nH]c5ccccc45)[nH]c3cc21 [Example 14, 5-Ethyl-2-(1H-indazol-3-yl)-8,8-dimethyl-3,5,7,8-tetrahydro-imidazo[4,5-g]quinolin-6-one] |
| 0.1 to 1 µM | CC1(C)C(=O)N(CC2CC2)c2cc3[nH]c(-c4n[nH]c5ccccc45)nc3cc21 [Example 1, 5-Cyclopropylmethyl-2-(1H-indazol-3-yl)-7,7-dimethyl-5,7-dihydro-3H-imidazo[4,5-f]indol-6-one] |
| 0.1 to 1 µM | CCN1C(=O)C(C)(C)c2cc3[nH]c(-c4n[nH]c5ccc(NS(=O)(=O)c6ccc(F)cc6)cc45)nc3cc21 [Example 137, N-[3-(5-Ethyl-7,7-dimethyl-6-oxo-1,5,6,7-tetrahydro-imidazo[4,5-f]indol-2-yl)-1H-indazol-5-yl]-4-fluoro-benzenesulfonamide] |
| 0.1 to 1 µM | CCN1C(=O)C(C)(C)c2cc3[nH]c(-c4n[nH]c5ccc(NS(=O)(=O)c6ccccc6)cc45)nc3cc21 [Example 132, N-[3-(5-Ethyl-7,7-dimethyl-6-oxo-1,5,6,7-tetrahydro-imidazo[4,5-f]indol-2-yl)-1H-indazol-5-yl]-benzenesulfonamide] |
